Source: US20030181507A1, “Use of 3-substituted oxindole derivatives as kcnq potassium channel modulators” (priority 2000, published 2003)

Columns and labels:
KCNQ channels = conditions: background statement; cited from earlier work
BK channels = BK channels (Homo sapiens, UniProt Q12791); conditions: background statement; cited from earlier work
KCNQ4 [1] = biological target: T1, KCNQ4 (Homo sapiens, UniProt P56696); experiment: Membrane potential in current clamp mode, KCNQ4 expressing cell; assay type: cell-based; conditions: FIG. 3; for membrane potential after addition of compound: 10 μM in bath solution, whole cell, initial resting potential around −60 mV, sequential additions to same cell
T1 construct: expressed in transfected cells; host or cells: HEK-293
Protocol: (§1) KCNQ4 and KCNQ5 was sub-cloned into the mammalian expression vector pNS1n (NeuroSearch), a custom-designed derivative of pcDNA3Neo (InVitrogen). HEK-293 cells (American Type Culture Collection) were grown in DMEM (Life Technologies) supplemented with 10% FCS (Life Technologies) at 37° C. in 5% CO2.
(§2) One day prior to transfection, 10^6 cells were plated in a cell culture T25 flask (Nunc). Cells were transfected with 2.5 μg of the plasmid pNS1n_KCNQ4 or with 2.5 μg of the plasmid pNS1n_KCNQ5 using Lipofectamine (Life Technologies) according to the manufacturer's instructions. Cells transfected with pNS1n_KCNQ4 or pNS1n_KCNQ5 were selected in media supplemented with 0.5 mg/ml geneticin (G418; Life Technologies).
(§3) Single clones were picked and propagated in selection media for five passages after which they were considered stable. Following the cells were cultured in regular medium without selection agent.
Expression of functional KCNQ4 channels or KCNQ5 channels was verified by patch-clamp measurements.
Transfected cells were cultured on glass cover slips (Ø=3 mm), which were transferred to a small recording chamber. The chamber was perfused with extracellular solutions at a rate of 1 ml/min giving rise to full exchange of the chamber volume (15 μl) each second.
Whole-cell currents were recorded using a HEKA EPC-9 amplifier and borosilicate glass micropipettes with tip resistances of 1.5-3 MΩ. Series resistances were below 5 MΩ, mostly stayed constant during the experiment and were compensated by 70%. The currents were not leak-subtracted.
All experiments were performed at room temperature (21-25° C.). Igor software (WaveMetrics, Lake Oswego, Oreg.) was used for the analysis.
The bath solution consisted of 144 mM NaCl, 4 mM KCl, 2 mM CaCl2, 1 mM MgCl2 and 10 mM HEPES (pH adjusted to 7.4). The pipette solution consisted of 144 mM KCl, 5.4 mM CaCl2, 1.8 mM MgCl2, 4 mM NaATP, 0.4 mM GTP, 10 mM EGTA and 10 mM HEPES (pH adjusted to 7.2).
The membrane potential was measured in current clamp mode using the whole cell configuration of the patch clamp technique. A resting membrane potential of around −60 mV was initially recorded from this cell and the addition of 10 μM Compound 1 to the bath solution induced a hyper-polarisation of the membrane potential to −83 mV.
After washout of Compound 1, the membrane potential returned to −69 mV, and subsequent addition of 10 μM Retigabine, a KCNQ activator, induced a faster but smaller hyperpolarisation to a membrane potential of −76 mV.
The compounds were present in the bath solution during the times indicated by the bars.

KCNQ4 [2] = biological target: T1, KCNQ4; experiment: Whole-cell voltage clamp of KCNQ4 stably expressed in HEK-293 cells; assay type: cell-based
Protocol: as §1, §2
Single clones were picked and propagated in selection media for five passages after which they were considered stable. Following the cells were cultured in regular medium without selection agent. […]
(§4) Whole-cell currents were recorded using a HEKA EPC-9 amplifier and borosilicate glass micropipettes with tip resistances of 1.5-3 MΩ. […]
The currents were measured in voltage mode using the whole-cell configuration of the patch clamp technique. […]
The experimental conditions was as described above, but in this experiment the depolarising potential ranged from −120 mV to +40 mV before a step back to −120 mV where brief inward tail currents were recorded. […]

KCNQ5 = biological target: T2, KCNQ5 (Homo sapiens, UniProt Q9NR82); experiment: Whole-cell voltage clamp of KCNQ5 stably expressed in HEK-293 cells; assay type: cell-based; conditions: 10 μM, holding −90 mV, step to −30 mV
T2 construct: expressed in transfected cells; host or cells: HEK-293
Protocol: as §1, §2, §3
Expression of functional KCNQ4 channels or KCNQ5 channels was verified by patch-clamp measurements. […]
as §4
The currents were measured from a cell patch clamped in the whole-cell voltage clamp configuration. […]
The currents recorded in the absence (control) and in the presence of 10 μM of the reference M current blocker XE-991 is shown in the panel to the left.

Chain of BK channels (Q12791 whole entry): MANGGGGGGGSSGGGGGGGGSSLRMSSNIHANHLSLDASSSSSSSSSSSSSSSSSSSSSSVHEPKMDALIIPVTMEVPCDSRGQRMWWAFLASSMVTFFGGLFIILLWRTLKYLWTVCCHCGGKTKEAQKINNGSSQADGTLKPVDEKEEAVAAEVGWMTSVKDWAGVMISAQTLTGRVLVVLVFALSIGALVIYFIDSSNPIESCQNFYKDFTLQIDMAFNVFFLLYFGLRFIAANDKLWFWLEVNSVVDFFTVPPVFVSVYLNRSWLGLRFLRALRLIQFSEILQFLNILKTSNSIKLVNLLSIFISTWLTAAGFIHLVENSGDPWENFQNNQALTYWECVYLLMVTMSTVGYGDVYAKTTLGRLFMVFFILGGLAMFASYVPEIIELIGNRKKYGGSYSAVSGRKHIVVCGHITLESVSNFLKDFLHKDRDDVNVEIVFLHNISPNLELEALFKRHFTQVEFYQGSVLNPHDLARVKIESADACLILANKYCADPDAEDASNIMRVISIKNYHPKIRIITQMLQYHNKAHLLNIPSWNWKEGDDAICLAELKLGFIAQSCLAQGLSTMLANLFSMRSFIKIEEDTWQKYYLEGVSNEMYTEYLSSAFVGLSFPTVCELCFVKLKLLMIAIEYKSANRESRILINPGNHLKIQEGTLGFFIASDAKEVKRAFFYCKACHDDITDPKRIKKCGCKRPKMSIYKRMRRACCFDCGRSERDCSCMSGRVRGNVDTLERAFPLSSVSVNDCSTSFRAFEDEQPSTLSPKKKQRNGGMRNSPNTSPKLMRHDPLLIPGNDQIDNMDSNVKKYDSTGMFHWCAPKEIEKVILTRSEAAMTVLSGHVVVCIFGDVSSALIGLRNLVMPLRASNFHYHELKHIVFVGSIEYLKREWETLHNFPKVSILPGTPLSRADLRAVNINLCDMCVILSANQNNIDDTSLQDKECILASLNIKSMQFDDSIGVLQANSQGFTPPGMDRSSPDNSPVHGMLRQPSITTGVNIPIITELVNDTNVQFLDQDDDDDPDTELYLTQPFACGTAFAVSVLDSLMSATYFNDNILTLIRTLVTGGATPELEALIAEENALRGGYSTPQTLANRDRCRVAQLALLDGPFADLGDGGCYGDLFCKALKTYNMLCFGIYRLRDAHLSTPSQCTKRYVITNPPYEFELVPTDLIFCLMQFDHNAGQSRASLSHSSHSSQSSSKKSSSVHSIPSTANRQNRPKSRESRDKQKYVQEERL

Structure (SMILES)	effect on KCNQ channels (KCNQ channels)	effect on BK channels (BK channels)	membrane potential after addition of compound (KCNQ4 [1])	membrane potential after washout of compound (KCNQ4 [1]; after washout of 10 μM compound)	changes in IV relation and activation curve (KCNQ4 [2]; 3 μM, depolarising potential −120 mV to +40 mV, FIG. 2)	activation of KCNQ4 currents (KCNQ4 [2]; 0.1, 0.3, 1, 3 and 10 μM, holding −90 mV, step to −40 mV, HEK-293 cells, FIG. 1)	effect on KCNQ5 currents (KCNQ5; after washout of XE-991, FIG. 4)	return of membrane potential upon washout (KCNQ4 [1]; after 10 μM compound)	reversibility of inhibition of KCNQ5 currents (KCNQ5; FIG. 4)
O=C1N(c2ccccc2)c2ccccc2C1(Cc1ccncc1)Cc1ccncc1 [Linopiridine]	potent KCNQ inhibiting compounds	no effect							
COc1ccc(Cl)cc1C1(F)C(=O)Nc2cc(C(F)(F)F)ccc21 (racemic) [Compound 1, (±)-3-(5-chloro-2-methoxyphenyl)-1,3-dihydro-3-fluoro-6-(trifluoromethyl)-2H-indol-2-one]			−83 mV	−69 mV	changes in IV relation and activation curve	dose-dependent activation	activation		
O=C1c2ccccc2C(Cc2ccncc2)(Cc2ccncc2)c2ccccc21 [XE-991]	potent KCNQ inhibiting compounds	no effect	−12 mV					returned very slowly towards the control level	not fully reversible
